IC50 data for 13 compounds are collected here from ChEMBL document CHEMBL1135447, “Design and synthesis of tricyclic compounds with enone functionalities in rings A and C: a novel class of highly active inhibitors of nitric oxide production in mouse macrophages” (J Med Chem, 2002).

Molecules are shown by their SMILES. pIC50: −log10 of the molar value. A value given as a limit tells only on which side of the number the result lay.

What is called pIC50 is the negative decadic logarithm of the IC50, by convention in mol/L. Read a high pIC50 as a small IC50.

One assay is filed under the species Mus musculus. Put plainly: Inhibitory activity against nitric oxide production induced by interferon-gamma (IFN-gamma) in mouse macrophages. Type of assay: functional.
Details: not given
Turning to `CC1(C)C(=O)C(C#N)=C[C@]2(C)C3=CC(=O)C=C[C@]3(C)CC[C@@H]12` (stereo in doubt; (+)-6), the pIC50 was 7.24.
In turn, `CC1(C)C(=O)C(C#N)=C[C@]2(C)C3=CC(=O)C=C[C@]3(C)CC[C@@H]12` (stereo in doubt; (-)-6) gave a negative-log IC50 (pIC50) of 7.19.

Staying with this assay, now noted: Mus musculus.
With `CC1(C)C(=O)C(C#N)=C[C@]2(C)C3=CC(=O)C(C(N)=O)=C[C@]3(C)CC[C@@H]12` (racemic), the negative-log IC50 (pIC50) was 7.21.
`CC(=O)O[C@@H]1CCC=C2[C@@]3(C)C=C(C#N)C(=O)C(C)(C)[C@@H]3CC[C@]21C` (racemic) had a pIC50 of 6.32.
`CC1(C)C(=O)C(C#N)=C[C@]2(C)C3=CCC[C@@H](O)[C@]3(C)CC[C@@H]12` (racemic) had a pIC50 of 6.51.
For `CC1(C)C(=O)C(C#N)=C[C@]2(C)C3=CC(=O)C[C@@H](O)[C@]3(C)CC[C@@H]12` (racemic), the pIC50 was 7.12.
For `CC(=O)O[C@@H]1CC(=O)C=C2[C@@]3(C)C=C(C#N)C(=O)C(C)(C)[C@@H]3CC[C@]21C` (racemic), the pIC50 is 7.28.
With `CC1(C)C(=O)C(C#N)=C[C@]2(C)C3=CC(=O)C(C(=O)O)=C[C@]3(C)CC[C@@H]12` (racemic), the negative-log IC50 (pIC50) is 5.80.
In turn, `COC(=O)C1=C[C@]2(C)CC[C@H]3C(C)(C)C(=O)C(C#N)=C[C@]3(C)C2=CC1=O` (racemic) had a pIC50 of 7.04.
In turn, `CC1(C)C(=O)C(C#N)=C[C@]2(C)C3=CC(=O)C(C#N)=C[C@]3(C)CC[C@@H]12` (racemic) showed a pIC50 of 8.68.
Still for that read-out and setting: the figure for `CC1(C)C(=O)C(C#N)=C[C@]2(C)C3=CC(=O)C=C[C@]3(C)CC[C@@H]12` (racemic) is 7.21.
Same read-out and setting: the figure for `CC1(C)CC[C@]2(C(=O)O)CC[C@]3(C)[C@H](C(=O)C=C4[C@@]5(C)C=C(C#N)C(=O)C(C)(C)[C@@H]5CC[C@]43C)[C@@H]2C1` [BARDOXOLONE] is 9.30.
On to `CC1(C)CC[C@]2(C(=O)O)CC[C@]3(C)C(=CC[C@@H]4[C@@]5(C)CC[C@H](O)C(C)(C)[C@@H]5CC[C@]43C)[C@@H]2C1` [OLEANOLIC_ACID], for which the pIC50 was less than 4.40.
